Test results reported in BindingDB's records for doi:10.1016/j.bmc.2012.10.036 (Glaxosmithkline, 2012).

Experiment: Inhibition of glucocorticoid receptor in human H13 cells assessed as inhibition of glucocorticoid-induced cell proliferation after 3 hrs by [3H]-thymidine incorporation assay

CC[C@H]1OC(=O)[C@H](C)[C@@H](O[C@H]2C[C@@](C)(OC)[C@@H](O)[C@H](C)O2)[C@H](C)[C@@H](O[C@@H]2O[C@H](C)C[C@H](N(C)C)[C@H]2O)[C@](C)(O)C[C@@H](C)CN(CCCNC(=O)[C@H]2[C@H](C)C[C@H]3[C@@H]4CCC5=CC(=O)C=C[C@]5(C)[C@@]4(F)[C@@H](O)C[C@@]32C)[C@H](C)[C@@H](O)[C@]1(C)O gave an EC50 of 50 nM.
